Patent US8058242B2, “Chimeric proteins with natriuretic activity” (The University of Queensland, priority 2004, dated 2011)
Positions of bridges follow the written chain, without caps; N, C: chain ends. Non-standard residues stand in square brackets, D forms with d. No end group written: not given here. Sec = N[C@@H](C[SeH])C(=O)O; Nle = CCCC[C@H](N)C(=O)O

Assays:
[1] = tested on: rats with chronic heart failure; assay: Rat model of chronic heart failure, left coronary artery occlusion, anesthetized (Example 10); conditions: HF rats
conscious rabbits = assay: Blood pressure and heart rate in conscious rabbits, intravenous infusion dose-response (Example 8); conditions: for recovery of MAP from the hypotension, in words: one hour after the end of infusion; for recovery of MAP, in words: 2 hours after infusion
normal rats = assay: Hemodynamic parameters in normal anesthetized rats (Example 10)
[2] = biological target: T1, Natriuretic Peptide Receptor-A (NPR-A) signaling in MDCK cells (Canis lupus familiaris, UniProt A0A8I3MHU3); type: cell-based, canine; conditions: stimulation of cGMP accumulation in MDCK cells
T1 sequence (A0A8I3MHU3 32-1060): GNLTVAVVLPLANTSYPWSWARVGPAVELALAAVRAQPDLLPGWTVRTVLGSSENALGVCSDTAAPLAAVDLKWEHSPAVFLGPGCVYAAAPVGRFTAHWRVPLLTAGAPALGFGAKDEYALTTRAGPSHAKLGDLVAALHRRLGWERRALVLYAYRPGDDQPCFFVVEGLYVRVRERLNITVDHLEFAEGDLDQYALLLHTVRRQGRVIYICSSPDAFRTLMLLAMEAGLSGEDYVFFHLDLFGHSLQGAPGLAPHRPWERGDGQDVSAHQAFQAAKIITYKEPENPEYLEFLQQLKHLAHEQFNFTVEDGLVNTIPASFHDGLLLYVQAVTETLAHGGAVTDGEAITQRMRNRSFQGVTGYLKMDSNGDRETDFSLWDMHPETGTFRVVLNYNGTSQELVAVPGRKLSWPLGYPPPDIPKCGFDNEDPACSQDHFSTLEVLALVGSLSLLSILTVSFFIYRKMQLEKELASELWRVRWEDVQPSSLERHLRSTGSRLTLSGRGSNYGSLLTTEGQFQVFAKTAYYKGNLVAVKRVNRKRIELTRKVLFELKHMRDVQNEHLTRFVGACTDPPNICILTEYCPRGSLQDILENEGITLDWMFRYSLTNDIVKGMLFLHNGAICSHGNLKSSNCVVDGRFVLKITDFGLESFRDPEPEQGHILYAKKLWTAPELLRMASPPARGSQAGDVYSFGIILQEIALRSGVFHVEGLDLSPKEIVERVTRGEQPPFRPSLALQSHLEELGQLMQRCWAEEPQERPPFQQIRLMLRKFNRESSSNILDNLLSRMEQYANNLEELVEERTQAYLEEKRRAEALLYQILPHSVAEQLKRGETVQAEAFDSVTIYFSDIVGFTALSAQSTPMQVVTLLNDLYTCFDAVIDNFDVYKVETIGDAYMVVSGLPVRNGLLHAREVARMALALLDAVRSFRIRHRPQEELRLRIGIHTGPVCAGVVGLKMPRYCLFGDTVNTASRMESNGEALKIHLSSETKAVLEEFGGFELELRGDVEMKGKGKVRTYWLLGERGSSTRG

Plasmin = biological target: T2, Plasmin (Homo sapiens, UniProt P00747); assay: Stability to enzymatic degradation by plasmin (Examples 7, 16); type: in vitro ADME; conditions: plasmin, 37° C.
T2 construct: with 500 ng Endopeptidase (NEP) or 10 μg Plasmin
T2 sequence (P00747 97-580 partner limits assumed, species assumed): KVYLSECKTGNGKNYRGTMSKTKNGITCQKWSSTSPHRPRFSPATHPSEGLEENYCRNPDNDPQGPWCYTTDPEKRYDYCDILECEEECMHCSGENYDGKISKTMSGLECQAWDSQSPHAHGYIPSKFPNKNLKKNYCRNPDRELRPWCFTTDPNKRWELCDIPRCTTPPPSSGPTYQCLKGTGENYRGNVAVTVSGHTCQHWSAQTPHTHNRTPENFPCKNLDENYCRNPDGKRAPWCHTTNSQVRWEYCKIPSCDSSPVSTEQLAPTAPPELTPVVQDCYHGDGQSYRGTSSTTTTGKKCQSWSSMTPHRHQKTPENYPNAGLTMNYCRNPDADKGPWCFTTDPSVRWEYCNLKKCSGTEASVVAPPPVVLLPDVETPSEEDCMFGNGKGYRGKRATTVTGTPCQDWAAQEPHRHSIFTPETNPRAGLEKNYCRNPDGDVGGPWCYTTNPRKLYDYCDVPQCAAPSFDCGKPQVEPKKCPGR
T2 sequence (P00747 581-810 limits assumed, species assumed): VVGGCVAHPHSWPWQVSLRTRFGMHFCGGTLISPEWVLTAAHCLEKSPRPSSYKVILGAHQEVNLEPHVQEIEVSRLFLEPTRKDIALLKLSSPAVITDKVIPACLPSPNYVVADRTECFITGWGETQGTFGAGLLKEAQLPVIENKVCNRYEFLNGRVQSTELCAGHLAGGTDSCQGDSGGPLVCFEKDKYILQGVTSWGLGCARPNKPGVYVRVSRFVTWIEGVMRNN
Procedure: The incubation buffer contained 100 mM Tris/HCl and 150 mM NaCl and the pH was adjusted to 7.2-7.4. In each assay, 100 μl of peptide [500 μM] was incubated with 300 μl buffer (with 500 ng Endopeptidase (NEP) or 10 μg Plasmin) at 37° C. 50 μl aliquots were taken at times 5 min, 30 min, 60 min, 90 min, 180 min and 24 h. The reaction was quenched by heating to 100° C. for 4 min and the remaining peptide concentrations measured by RP-HPLC. Note that the levels of Plasmin required to degrade these peptides was several thousands time the levels present in human plasma.
The stability of TDT and was investigated using the same enzymatic degradation assays (NEP, plasmin, pepsin) disclosed in Example 7. […] It is also evident that the increased NEP stability cannot be explained by the length of the tail region alone as the NEP cleavage site residues at the N-terminal end of the loop region.

[3] = tested on: denuded aortic rings, GC A receptor; assay: Relaxation of noradrenaline constricted endothelium-denuded aortic rings (Example 11); parameters: species or system rat; conditions: GC-A mediated
Procedure: Male Sprague Dawley rats were killed and the descending thoracic aorta rapidly removed and flushed with physiological solution. After being cleared of adhering fat and connective tissue, 5 mm rings were mounted under 10 g resting tension, between two stainless steel hooks, in organ baths (37° C.) containing carbogenated (95% O2 and 5% CO2) physiological salt solution of the following composition (mM): NaCl, 118.4; NaHCO3, 25; glucose, 11; KCl, 4.7; MgSO4, 1.2; KH2PO4, 1.2 and CaCl2, 2.5. The lower hook was attached to a tissue holder and the upper hook to a force displacement transducer (Grass FTO3). Where indicated endothelial cells were removed by gentle rubbing of the intimal surface with a wire. To confirm the presence or absence of endothelial cells, tissues were precontracted with a sub-maximal concentration of phenylephrine (0.3 μM) and the response to acetylcholine (ACh, 10 μM) observed. Ach-induced relaxation greater than 80% of maximum indicated the presence of endothelium; whereas Ach-induced relaxation less than 10% indicated the absence of endothelium. Ring preparations under resting tension were conditioned by two contraction/relaxation cycles with 40 mM KCl, contracted by a third application of 40 mM KCl and then relaxed with different doses of the venom peptides. Responses were expressed as a percentage relaxation of the precontraction by KCl.
In addition to the peptides tested in example 3, a series of 13 analogs corresponding to the 2a, 2b and 2c grouping of peptides were examined for their ability to dilate noradrenaline constricted aortic rings. The degree of constriction was expressed as a percentage of the KCl induced constriction. The aortic rings were prepared in a manner similar to the method described in example 3. […]. In each case there were at least 3 separate aortic rings tested per peptide and all were denuded of endothelium to ensure responses were confined to the GC A receptor.

[4] = after 1 hour recovery period, Table 10A
[5] = highest dose, Table 10A, groups 1, 2A and 3
[6] = after a 2 hour recovery period, Table 10B
[7] = final dose, Table 10B, groups 2B and 2C

## CC[C@H](C)[C@@H]1NC(=O)[C@H](CCCNC(=N)N)NC(=O)[C@H](CC(=O)O)NC(=O)[C@H](CCSC)NC(=O)[C@H](CCCCN)NC(=O)[C@H](CCCNC(=N)N)NC(=O)CNC(=O)[C@H](Cc2ccccc2)NC(=O)[C@@H](NC(=O)CNC(=O)[C@H](CO)NC(=O)CNC(=O)[C@H](CCC(N)=O)NC(=O)[C@@H](NC(=O)[C@H](CCSC)NC(=O)[C@H](CCCCN)NC(=O)[C@@H]2CCCN2C(=O)[C@@H](N)CO)C(C)C)CSSC[C@@H](C(=O)N[C@@H](CCCCN)C(=O)N[C@H](C(=O)N[C@@H](CC(C)C)C(=O)N[C@@H](CCCNC(=N)N)C(=O)N[C@@H](CCCNC(=N)N)C(=O)N[C@@H](Cc2c[nH]cn2)C(=O)O)C(C)C)NC(=O)CNC(=O)[C@H](CC(C)C)NC(=O)CNC(=O)[C@H](CO)NC(=O)[C@H](CO)NC(=O)[C@H](CO)NC(=O)[C@H](CO)NC1=O [hBNP]
[1]; 50 pmol/kg/min, 30 min
  Blood Flow, mean change from control: -1.6 mL/min
  Conductance, mean change from control: −0.3 ml/min/mmHg
  Diastolic LVP, mean change from control: −0.7 mmHg
  HCT, mean change from control: 1.9%
  HR, mean change from control: −12.3 bpm
  Mean BP, mean change from control: −9.6 mmHg
  Urine Flow, mean change from control: 0.8 mL/h
[1]; 100 pmol/kg/min, 30 min
  Blood Flow, mean change from control: -2.9 mL/min
  Conductance, mean change from control: 0.2 ml/min/mmHg
  Diastolic LVP, mean change from control: −1.2 mmHg
  HCT, mean change from control: 0.3%
  HR, mean change from control: −40.5 bpm
  Mean BP, mean change from control: −26.5 mmHg
  Urine Flow, mean change from control: 0.7 mL/h
[1]; Recovery
  Blood Flow, mean change from control: -1.0 mL/min
  Conductance, mean change from control: 0.5 ml/min/mmHg
  Diastolic LVP, mean change from control: 1.9 mmHg
  HCT, mean change from control: −1.3%
  HR, mean change from control: −41.7 bpm
  Mean BP, mean change from control: −14.6 mmHg
  Urine Flow, mean change from control: -0.2 mL/h
[1]; average of the two doses
  Blood Flow, Average drug response SED: -2.2 ± 0.4 mL/min
  Conductance, Average drug response SED: −0.1 ± 0.3 ml/min/mmHg
  Diastolic LVP, Average drug response SED: −1.0±1.0 mmHg
  HCT, Average drug response SED: 1.1 ± 0.8%
  HR, Average drug response SED: −26.4 ± 23.0 bpm
  Mean BP, Average drug response SED: −18.1±6.3 mmHg
  Urine Flow, Average drug response SED: 0.7 ± 0.3 mL/h
Conscious rabbits; bolus injection of 0.24 mg/kg TNPc or equivalent molar dose of BNP
  time taken to recover to 50% of the peak response: 80 min
Normal rats; 50 pmol/kg/min, 30 min
  Blood Flow, mean change from control: -1.9 mL/min
  Conductance, mean change from control: −1.1 ml/min/mmHg
  Diastolic LVP, mean change from control: −0.1 mmHg
  HCT, mean change from control: 1.0%
  HR, mean change from control: −16.6 BPM
  Mean BP, mean change from control: −6.4 mmHg
  Urine Flow, mean change from control: 0.2 mL/h
Normal rats; 100 pmol/kg/min, 30 min
  Blood Flow, mean change from control: -2.6 mL/min
  Conductance, mean change from control: −1.2 ml/min/mmHg
  Diastolic LVP, mean change from control: 0.1 mmHg
  HCT, mean change from control: 3.5%
  HR, mean change from control: −5.3 BPM
  Mean BP, mean change from control: −14.9 mmHg
  Urine Flow, mean change from control: 0.7 mL/h
Normal rats; Recovery
  Blood Flow, mean change from control: -3.6 mL/min
  Conductance, mean change from control: −1.3 ml/min/mmHg
  Diastolic LVP, mean change from control: −0.2 mmHg
  HCT, mean change from control: −0.3%
  HR, mean change from control: 1.3 BPM
  Mean BP, mean change from control: −14.1 mmHg
  Urine Flow, mean change from control: 0.6 mL/h
Normal rats; average of the two doses
  Blood Flow, Average drug response SED: -2.2 ± 1.0 mL/min
  Conductance, Average drug response SED: −1.1 ± 0.4 ml/min/mmHg
  Diastolic LVP, Average drug response SED: 0.0 ± 0.3 mmHg
  HCT, Average drug response SED: 2.2 ± 0.6%
  HR, Average drug response SED: −10.9 ± 7.1 BPM
  Mean BP, Average drug response SED: −10.7 ± 4.7 mmHg
  Urine Flow, Average drug response SED: 0.5 ± 0.4 mL/h
[2]
  −Log10 EC50 (pEC50) ± Standard Error: 9.165 ± 0.1039
[2]; read-out: EC50 (M) ± Standard Error
  EC50: 9.07e-10 M
Plasmin; plasmin in Tris/HCl-NaCl buffer, read-out: HalfLife in plasmin
  half-life at 125 μM: 13.1 min
Plasmin
  K (one phase exponential decay, best fit values): 0.053
  PLATEAU (one phase exponential decay, best fit values): 0.03403
  SPAN (one phase exponential decay, best fit values): 0.9926

## SDSKIGNGCFGFPLDRIGSVSGLGCNRIMQNRPKKFSGE (A portion of a natriuretic peptide) [TNPc P32R]
[3]
  Mean relaxation SEM of denuded aortic rings expressed as % of KCl response: 66.4 ± 8.8%
Conscious rabbits; [4]
  Recovery (MAP): 57.6 mm Hg
  Recovery Delta SED (MAP): 0.1 ± 1.4 mm Hg
Conscious rabbits; highest dose, Table 10A
  MAP at final dose: 57.5 mm Hg
Conscious rabbits; [5]
  Treatment Effect, change of mean blood pressure during the infusion: −19.9 mm Hg
Conscious rabbits
  recovery of MAP from the hypotension, in words: did recover from the hypotension

## SDSKIGNGCFGFPLDRIGSVSGLGCNRInQNPPKKFSGE (SDSKIGNGCFGFPLDRIGSVSGLGCNRI[Nle]QNPPKKFSGE; disulfide 9-25 (inferred); ends not checked) [TNPc Nle]
[3]
  Mean relaxation SEM of denuded aortic rings expressed as % of KCl response: 61.0 ± 2.5%
Conscious rabbits
  recovery of MAP, in words: partially recovered
Conscious rabbits; Table 10B
  MAP at final dose: 53.4 mm Hg
Conscious rabbits; [6]
  Recovery (MAP): 64.5 mm Hg
  Recovery Delta SED (MAP): 11.0 ± 3.0 mm Hg
Conscious rabbits; [7]
  Treatment Effect, change of mean blood pressure during the infusion: −13.6 mm Hg

## SDSKIGNGCFGFPLDRIGSVSGLGCNRPMQNPPKKFSGE (A portion of a natriuretic peptide) [TNPc I28P]
[3]
  Mean relaxation SEM of denuded aortic rings expressed as % of KCl response: 52.6 ± 5.0%
Conscious rabbits; [4]
  Recovery (MAP): 66.6 mm Hg
  Recovery Delta SED (MAP): 1.2 ± 2.4 mm Hg
Conscious rabbits; highest dose
  reduction of MAP compared to vehicle, in words: did significantly reduce MAP
Conscious rabbits; highest dose, Table 10A
  MAP at final dose: 65.4 mm Hg
Conscious rabbits; [5]
  Treatment Effect, change of mean blood pressure during the infusion: −9.1 mm Hg
Conscious rabbits
  recovery of MAP from the hypotension, in words: did recover from the hypotension

## SDSKIGNGUFGFPLDRIGSVSGLGUNRIMQNPPKKFSGE (SDSKIGNG[Sec]FGFPLDRIGSVSGLG[Sec]NRIMQNPPKKFSGE; ends and bridges not checked) [TNPc diseleno]
[3]
  Mean relaxation SEM of denuded aortic rings expressed as % of KCl response: 60.5 ± 9.6%
Conscious rabbits
  recovery of MAP, in words: did not recover after 2 hours
Conscious rabbits; Table 10B
  MAP at final dose: 61.0 mm Hg
Conscious rabbits; [6]
  Recovery (MAP): 65.8 mm Hg
  Recovery Delta SED (MAP): 4.8 ± 0.3 mm Hg
Conscious rabbits; [7]
  Treatment Effect, change of mean blood pressure during the infusion: −12.6 mm Hg
